{"source": "patent US20170143738A1", "about": "“SOLID FORMULATION AND METHOD FOR STABILIZING THE SAME” (EA Pharma Co., Ltd., priority 2014, published 2017)", "key": {"[1]": {"experiment": "Storage stability of Elobixibat alone or mixed 1:1 with an additive: total related substance(s) by HPLC", "format": "physicochemical", "conditions": "stored in an open state for 2 weeks, 60° C. and 75% relative humidity", "procedure": "(§1) 1,1-dioxo-3,3-dibutyl-5-phenyl-7-methylthio-8-(N—{(R)-1′-phenyl-1′-[N′-(carboxymethyl)carbamoyl]methyl}carbamoylmethoxy)-2,3,4,5-tetrahydro-1,5-benzothiazepine (Elobixibat) and an additive shown in Table 1 were mixed in a weight ratio of 1:1. Thereby, the mixtures according to Reference Examples 2 to 10 were obtained. The mixture of each of Reference Examples 2 to 10, and only Elobixibat as Reference Example 1 was independently stored in an open state for 2 weeks under the conditions of 60° C. and 75% relative humidity. The material of Reference Example 1 and the mixtures according to Reference Examples 2 to 10 after storage were independently dispersed and dissolved in acetonitrile aqueous solution. The total amount of related substance(s) in the aforementioned aqueous solution was calculated as the sum of the areas in percentage for Elobixibat by the measurement in accordance with an HPLC method. In addition, the presence or absence of coloration of the mixtures of Reference Examples 1 to 7 after storage was visually observed. “%” shown in Table 1 indicates percent by weight."}, "[2]": {"experiment": "Visual observation of coloration of Elobixibat and Elobixibat/additive mixtures after storage", "format": "physicochemical", "conditions": "60° C. and 75% relative humidity, visually observed", "procedure": "as §1"}}, "data": [{"compound": "CCCCC1(CCCC)CN(c2ccccc2)c2cc(SC)c(OCC(=O)N[C@@H](C(=O)NCC(=O)O)c3ccccc3)cc2S(=O)(=O)C1", "note": "[Reference Example 1, 1,1-dioxo-3,3-dibutyl-5-phenyl-7-methylthio-8-(N—{(R)-1′-phenyl-1′-[N′-(carboxymethyl)carbamoyl]methyl}carbamoylmethoxy)-2,3,4,5-tetrahydro-1,5-benzothiazepine]", "values": [{"measurement": "Increase of the amount of related substance(s) after storage (in words)", "setting": "[1]; summary of Table 1", "value": "a great increase of the related substance(s) was not observed"}, {"measurement": "Total amount of related substance(s) after storage", "setting": "[1]; weight ratio 1:1 with additive, sum of HPLC areas in percentage for Elobixibat", "value": 0.6, "unit": "%"}, {"measurement": "Coloration: Before storage → after storage", "setting": "[2]; colour before and after 2 weeks open storage", "value": "White → white"}, {"measurement": "Coloration after storage", "setting": "[2]; stored in an open state for 2 weeks", "value": "Not observed"}]}]}
